Measurements as given in patent US20250230171A1 (MOMA Therapeutics, Inc., priority 2023, published 2025).
Read-outs that look alike come from different tables or passages of the source.

Assays:
[1] = biological target: biotinylated Avi-POLθ[2-894] (Homo sapiens (Human), UniProt O75417); experiment: POLθ ATPase assay (ADP-Glo); settings: n=2, read-out: Biochemical ATPase ADPGlo IC50
DLD1 BRCA2 (−/−) cells = experiment: 7-day cell viability assay (CellTiter-Glo), DLD1 BRCA2 (−/−); assay type: cell-based, human; settings: Homo sapiens, DLD-1, 168 h, n=2, read-out: Viability IC50 (uM) DLD1 BRCA2 null
Summary of the method: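 7-day growth assay in DLD1 cells with or without BRCA2; seeding densities chosen to keep log-linear growth. Compound: 10 uM top, 3-fold, 9 points. Endpoint: CTG ATP luminescence at RT.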

DLD1 WT cells = experiment: 7-day cell viability assay (CellTiter-Glo), DLD1 parental (WT); assay type: cell-based, human; settings: Homo sapiens, DLD-1, 168 h, n=2

Chain of biotinylated Avi-POLθ[2-894] (O75417 2-894): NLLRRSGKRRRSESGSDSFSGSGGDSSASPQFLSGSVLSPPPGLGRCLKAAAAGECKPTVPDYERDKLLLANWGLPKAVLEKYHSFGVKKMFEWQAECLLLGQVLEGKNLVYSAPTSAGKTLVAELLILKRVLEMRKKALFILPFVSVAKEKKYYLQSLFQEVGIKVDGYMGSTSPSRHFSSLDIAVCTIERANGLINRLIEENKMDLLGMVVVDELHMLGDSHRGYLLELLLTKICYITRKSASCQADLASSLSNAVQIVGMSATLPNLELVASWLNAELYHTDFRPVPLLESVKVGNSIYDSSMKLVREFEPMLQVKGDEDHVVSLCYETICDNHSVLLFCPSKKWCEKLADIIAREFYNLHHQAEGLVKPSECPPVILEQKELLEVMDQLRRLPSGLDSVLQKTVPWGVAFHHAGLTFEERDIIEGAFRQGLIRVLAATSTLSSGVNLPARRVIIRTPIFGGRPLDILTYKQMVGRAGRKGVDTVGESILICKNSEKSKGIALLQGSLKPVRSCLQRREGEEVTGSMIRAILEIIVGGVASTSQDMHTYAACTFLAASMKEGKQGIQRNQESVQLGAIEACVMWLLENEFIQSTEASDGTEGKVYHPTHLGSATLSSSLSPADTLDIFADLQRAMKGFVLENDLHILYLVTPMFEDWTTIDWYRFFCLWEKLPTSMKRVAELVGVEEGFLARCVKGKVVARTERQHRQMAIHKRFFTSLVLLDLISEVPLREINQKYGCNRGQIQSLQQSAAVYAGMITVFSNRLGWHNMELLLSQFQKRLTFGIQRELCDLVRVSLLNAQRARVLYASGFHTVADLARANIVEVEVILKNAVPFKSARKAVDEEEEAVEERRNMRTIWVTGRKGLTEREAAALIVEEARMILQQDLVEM

Row | SMILES | IC50 ([1]; POLθ ATPase, ADP-Glo) | IC50 (DLD1 BRCA2 (−/−) cells; 7-day CellTiter-Glo) | IC50 (DLD1 WT cells; 7-day CellTiter-Glo) | IC50 [1] | IC50 (DLD1 BRCA2 (−/−) cells; 7-day viability) | IC50 (DLD1 WT cells; 7-day viability)
1 | COc1cnc(Cl)cc1-c1cc(C)ncc1C(=O)Nc1nc2c(s1)CN(C(=O)c1cc(C(F)F)ccc1F)C2 [Example 398, 2′-chloro-N-(5-(5-(difluoromethyl)-2-fluorobenzoyl)-5,6-dihydro-4H-pyrrolo[3,4-d]thiazol-2-yl)-5′-methoxy-6-methyl-[4,4′-bipyridine]-3-carboxamide] | 0.001 to 0.015 µM | 0.001 to 0.1 µM | ≥ 10 µM | – | – | –
2 | COc1ccccc1-c1cc(C)ncc1C(=O)Nc1nc2c(s1)CN(C(=O)C1CC(OC(F)F)C1)C2 (racemic) | – | – | – | 0.001 to 0.015 µM | 0.25 to 0.5 µM | ≥ 10 µM
3 | COc1cnc(Cl)cc1-c1cc(C)ncc1C(=O)Nc1nc2c(s1)CN(C(=O)c1cccc(C(F)(F)F)n1)C2 [Example 21, 2′-chloro-5′-methoxy-6-methyl-N-(5-(6-(trifluoromethyl)picolinoyl)-5,6-dihydro-4H-pyrrolo[3,4-d]thiazol-2-yl)-[4,4′-bipyridine]-3-carboxamide] | – | – | – | 0.001 to 0.015 µM | 0.001 to 0.1 µM | ≥ 10 µM
4 | COc1cnc(Cl)cc1-c1cc(C)ncc1C(=O)Nc1nc2c(s1)CN(C(=O)c1ccnc(C)n1)C2 | 0.001 to 0.015 µM | 0.001 to 0.1 µM | 5 to 10 µM | – | – | –
5 | COc1ccc(C#N)cc1-c1cc(C)ncc1C(=O)Nc1nc2c(s1)CN(C(=O)c1ccncc1)C2 | – | – | – | 0.001 to 0.015 µM | ≥ 2 µM | ≥ 10 µM
6 | COc1cnc(Cl)cc1-c1cc(C)ncc1C(=O)Nc1nc2c(s1)CN(C(=O)c1nc(C(F)F)ccc1Cl)C2 | 0.001 to 0.015 µM | 0.001 to 0.1 µM | ≥ 10 µM | – | – | –
7 | COc1ccc(C#N)cc1-c1cc(C)ncc1C(=O)Nc1nc2c(s1)CN(C(=O)c1ccc(C(F)F)cn1)C2 [Example 122] | – | – | – | 0.001 to 0.015 µM | 0.001 to 0.1 µM | 5 to 10 µM
8 | COc1ccc(C#N)cc1-c1cc(C)ncc1C(=O)Nc1nc2c(s1)CN(S(=O)(=O)NC(C)(C)C)C2 | – | – | – | 0.001 to 0.015 µM | ≥ 2 µM | ≥ 10 µM
9 | COc1cnc(Cl)cc1-c1cc(C)ncc1C(=O)Nc1nc2c(s1)CN(C(=O)c1c(Cl)cnn1C)C2 [Example 156] | – | – | – | 0.001 to 0.015 µM | 0.001 to 0.1 µM | ≥ 10 µM
10 | COc1cnc(Cl)cc1-c1cc(C)ncc1C(=O)Nc1nc2c(s1)CN(C(=O)c1cc(Cl)ccn1)C2 [Example 78, 2′-chloro-N-(5-(4-chloropicolinoyl)-5,6-dihydro-4H-pyrrolo[3,4-d]thiazol-2-yl)-5′-methoxy-6-methyl-[4,4′-bipyridine]-3-carboxamide] | – | – | – | 0.001 to 0.015 µM | 0.001 to 0.1 µM | 5 to 10 µM
11 | COc1cnc(Cl)cc1-c1cc(C)ncc1C(=O)Nc1nc2c(s1)CN(C(=O)c1ccc(OC(F)F)nc1Cl)C2 | 0.001 to 0.015 µM | 0.001 to 0.1 µM | ≥ 10 µM | – | – | –
12 | COc1cnc(Cl)cc1-c1cc(C)ncc1C(=O)Nc1nc2c(s1)CN(C(=O)c1ncccc1C(F)F)C2 [Example 158] | – | – | – | 0.001 to 0.015 µM | 0.1 to 0.25 µM | ≥ 10 µM
13 | COc1ccccc1-c1cc(C)ncc1C(=O)Nc1nc2c(s1)CNCC2 | – | – | – | ≥ 0.9 µM | ≥ 2 µM | ≥ 10 µM
14 | COc1ccc(C(=O)N2Cc3nc(NC(=O)c4cnc(C)cc4-c4cc(Cl)ncc4OC)sc3C2)cn1 | 0.001 to 0.015 µM | 0.001 to 0.1 µM | ≥ 10 µM | – | – | –
15 | COc1cnc(Cl)cc1-c1cc(C)ncc1C(=O)Nc1nc2c(s1)CN(C(=O)C1CC3(CC(OC)C3)C1)C2 (stereo not drawn) [Example 140] | – | – | – | 0.001 to 0.015 µM | 0.001 to 0.1 µM | 5 to 10 µM
16 | COc1cnc(Cl)cc1-c1cc(C)ncc1C(=O)Nc1nc2c(s1)CN(C(=O)c1cc(C)n(C)n1)C2 [Example 17, 2′-chloro-N-(5-(1,5-dimethyl-1H-pyrazole-3-carbonyl)-5,6-dihydro-4H-pyrrolo[3,4-d]thiazol-2-yl)-5′-methoxy-6-methyl-[4,4′-bipyridine]-3-carboxamide] | – | – | – | 0.001 to 0.015 µM | 0.001 to 0.1 µM | 0.001 to 0.5 µM
17 | COc1ccc(C#N)cc1-c1cc(C)ncc1C(=O)Nc1nc2c(s1)CN(C(=O)C1CCCCC1)C2 | – | – | – | 0.001 to 0.015 µM | 0.5 to 2 µM | ≥ 10 µM
18 | COc1cnc(Cl)cc1-c1cc(C)ncc1C(=O)Nc1nc2c(s1)CN(C(=O)c1cnn(C(F)F)c1)C2 (racemic) | – | – | – | 0.001 to 0.015 µM | 0.001 to 0.1 µM | 0.001 to 0.5 µM
19 | COc1cnc(Cl)cc1-c1cc(C)ncc1C(=O)Nc1nc2c(s1)CN(C(=O)c1nccn3nccc13)C2 | 0.001 to 0.015 µM | 0.001 to 0.1 µM | ≥ 10 µM | – | – | –
